The results in this text go back to PMC11855086, “Synthesis, Antimicrobial Activity, and Tyrosinase Inhibition by Multifunctional 3,4-Dihydroxy-Phenyl Peptidomimetics” (International Journal of Molecular Sciences, 2025).

For series [1], the target named is T1, mushroom tyrosinase (mTYR) (Agaricus bisporus, UniProt C7FF04).
T1 construct: purchased Sigma-Aldrich (Poznan, Poland); host or cells: Agaricus bisporus (extracted natural enzyme)
As to the kind of experiment: Tyrosinase assay with L-DOPA as substrate (absorbance at 475 nm). Format: biochemical. As to conditions: 100 µM compound. From the text:
Tyrosinase (Tyr) extracted from Agaricus bisporus (mushroom tyrosinase, mTYR) is commonly used as a model enzyme for human Tyr due to its high purity, stability, and commercial availability. It is frequently used in the selection of TYR inhibitors. Following established literature protocols, L-tyrosine and L-DOPA, which serve as substrates for monophenol and diphenol oxidation, respectively, were used to assess the tyrosinase inhibitory activity of synthesized target compounds [21].
Tyrosinase (Tyr) activity was measured using L-DOPA as substrate and phosphate buffer solution (PBS) as blank control, following the method described by Min He et al. (2022) with an ultraviolet spectrophotometer (Carry-300, Agilent Life Sciences and Chemical Analysis, Santa Clara, CA, USA). […] Before the experiment, 2.9 mL of PBS and 0.1 mL of DMSO were used to account for the influence of the background solvent. The inhibitor solution (100 µL), substrate solution (2.8 mL), and Tyr solution (100 µL) were then added to a quartz colorimetric cuvette. After a one-minute mixing period, the absorption spectra of the mixture were continuously recorded at 475 nm using the UV spectrophotometer (Carry-300) for 5 min over a period of every 30 s. The tyrosinase inhibition rate was calculated as follows:Relative enzyme activity (%) = (A1 − A2)/A1 × 100
A1 = Absorbance of L-DOPA and inhibitor.
A2 = Absorbance of L-DOPA, inhibitor, and tyrosinase.

The test system of the next series is E. cloacae (ATCC 49141). In words: MIC and MBC, microtiter plate technique. Format: cell-based. As to conditions: ATCC49141, Enterobacter cloacae; for MIC: 24 h, resazurin; for MBC: TTC. For orientation: Resazurin is reduced to fluorescent resorufin, in cell work by metabolically active cells.
The subject of the next series is S. aureus (ATCC 23235). In words: microbe, parasite or virus in culture. Format: cell-based. As to conditions: Staphylococcus aureus; for MBC: ATCC23235; for MIC: ATCC23235, 24 h.
For the next series, the system named is E. coli R4 (ATCC 39543). As to the kind of experiment: MIC and MBC, microtiter plate technique. Format: cell-based. Conditions: Escherichia coli; for MBC: ATCC39543; for MIC: ATCC39543, 24 h.
Series [2] concerns A. baumannii (ATCC 17978). As to the kind of experiment: MIC and MBC, microtiter plate technique. Format: cell-based. As to conditions: ATCC17978, Acinetobacter baumannii; for MIC: 24 h, resazurin; for MBC: TTC.
For series [3], the system named is P. aeruginosa (ATCC 15442). In words: MIC and MBC, microtiter plate technique. As to conditions: ATCC15442, Pseudomonas aeruginosa; for MIC: 24 h, resazurin; for MBC: TTC. Format: cell-based.
Another series has as its system E. coli R3 (ATCC 11775). In words: MIC and MBC, microtiter plate technique. As to conditions: Escherichia coli; for MIC: ATCC11775, 24 h, resazurin; for MBC: ATCC11775, TTC. Format: cell-based.
The subject of another series is E. coli R2 (ATCC 39544). As to the kind of experiment: MIC and MBC, microtiter plate technique. Conditions: Escherichia coli; for MBC: ATCC39544; for MIC: ATCC39544, 24 h. Format: cell-based.
In the next series the test system is E. coli K12 (ATCC 25404). As to the kind of experiment: MIC and MBC, microtiter plate technique. Format: cell-based. As to conditions: Escherichia coli; for MBC: ATCC25404; for MIC: ATCC25404, 24 h.
A further series is described as follows: MTT cytotoxicity assay. Conditions: mouse, BALB/c3T3 mouse embryonic fibroblast cells; 1.0 µM, 24 h; read-out: cell viability. Format: cell-based. As for the experimental part:
Following the completion of MIC and MBC assays on the analyzed bacterial strains, and subsequent treatment with Fpg protein modified by peptidomimetics along with selected antibiotics, a further MTT assay was conducted to evaluate the cytotoxicity of the compounds employing the BALB/c3T3 mouse embryonic fibroblast cell line (Figure 10).
BALB/c3T3 mouse embryonic fibroblast cells were exposed to peptidomimetics across concentrations ranging from 0.5 µM to 3.5 µM and incubated for a duration of 24 h. […] The highest concentrations (2.5 µM and 3.5 µM) inhibited cell viability, which was reduced to 20.2% and 1.0%, respectively (Figure 10 and Figure S40 in the Supplementary Materials).
The cytotoxic effects of aldehyde 1 and peptidomimetics 5a–r on BALB/c3T3 mouse fibroblast cells were assessed utilizing the MTT assay following a 24 h incubation period across five different concentrations (0.5, 1.0, 1.5, 2.5, and 3.5 µM). The MTT assay is predicated upon the capacity of mitochondrial dehydrogenase enzymes to convert the water-soluble tetrazolium salt, 3-([…])-2,5-diphenyltetrazolium bromide (MTT), into an insoluble formazan product, manifesting as dark blue crystals. These formazan crystals are then dissolved in DMSO or isopropanol, forming a colored solution whose intensity is measured spectrophotometrically within the wavelength range of 492–570 nm. The amount of MTT reduced corresponds to the oxidative activity of the mitochondria, which is directly proportional to the number of metabolically active cells in the population under defined experimental conditions. The MTT assay can also be used to assess cell viability in non-dividing metabolically active cells. It is one of the most widely used methods to assess cytotoxic activity and is recommended by international standards organizations as a reference method.

Values after ≈ are worked out from the molar mass of the structure shown.

T1 sequence (C7FF04 1-392 limits assumed): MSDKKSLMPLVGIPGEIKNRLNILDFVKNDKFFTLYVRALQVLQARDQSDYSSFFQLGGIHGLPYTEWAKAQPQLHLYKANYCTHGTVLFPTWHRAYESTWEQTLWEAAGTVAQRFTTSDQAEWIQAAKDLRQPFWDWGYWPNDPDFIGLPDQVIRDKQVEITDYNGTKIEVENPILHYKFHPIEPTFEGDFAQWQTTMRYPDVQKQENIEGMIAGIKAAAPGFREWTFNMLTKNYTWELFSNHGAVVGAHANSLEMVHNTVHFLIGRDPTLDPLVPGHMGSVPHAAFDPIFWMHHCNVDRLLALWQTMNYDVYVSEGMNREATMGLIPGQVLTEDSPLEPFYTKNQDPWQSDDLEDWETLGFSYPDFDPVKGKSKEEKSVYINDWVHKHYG

For the molecule `CC(=O)N(C1CCCCC1)C(C(=O)NCc1ccc(F)cc1)c1ccc(O)c(O)c1` (stereo not drawn) [Compound 5o, 2-(N-cyclohexylacetamido)-2-(3,4-dihydroxyphenyl)-N-(4-fluorobenzyl)acetamide], the inhibition (in general, how much of the control response was suppressed) at 100 µM in [1] is more than 10%. In addition, the MIC in the series with E. cloacae (ATCC 49141) came to 0.8 µM (≈ 0.332 µg/mL); against S. aureus (ATCC 23235) it was 0.74 µM (≈ 0.307 µg/mL); against E. coli R4 (ATCC 39543), 1.52 µM (≈ 0.63 µg/mL); in series [2] it was 0.75 µM (≈ 0.311 µg/mL); in series [3], 0.73 µM (≈ 0.303 µg/mL); against E. coli R3 (ATCC 11775), 1.01 µM (≈ 0.419 µg/mL). In addition, the MIC against E. coli R2 (ATCC 39544) came to 0.79 µM (≈ 0.327 µg/mL); against E. coli K12 (ATCC 25404) it was 0.3 µM (≈ 0.124 µg/mL). Also, the MBC was found to be 0.84 µM (≈ 0.348 µg/mL) with E. cloacae (ATCC 49141); 0.81 µM (≈ 0.336 µg/mL) with S. aureus (ATCC 23235); 1.47 µM (≈ 0.609 µg/mL) with E. coli R4 (ATCC 39543); 0.81 µM (≈ 0.336 µg/mL) in [2]; 0.86 µM (≈ 0.356 µg/mL) in series [3]; 1.45 µM (≈ 0.601 µg/mL) against E. coli R3 (ATCC 11775). The MBC in the series with E. coli R2 (ATCC 39544) came to 1.23 µM (≈ 0.51 µg/mL); against E. coli K12 (ATCC 25404) it was 0.86 µM (≈ 0.356 µg/mL).

Regarding `CCCCN(C(C)=O)C(C(=O)NCc1ccccc1)c1ccc(O)c(O)c1` (stereo not drawn) [Compound 5p, N-benzyl-2-(N-butylacetamido)-2-(3,4-dihydroxyphenyl)acetamide], in series [1], the inhibition at 100 µM was more than 10%. Also, the MIC worked out at 0.86 µM (≈ 0.319 µg/mL) in the series on E. cloacae (ATCC 49141); 0.87 µM (≈ 0.322 µg/mL) against S. aureus (ATCC 23235); 1.58 µM (≈ 0.585 µg/mL) in the series with E. coli R4 (ATCC 39543); 0.87 µM (≈ 0.322 µg/mL) in [2]; 0.88 µM (≈ 0.326 µg/mL) in series [3]; 1.27 µM (≈ 0.47 µg/mL) in the series on E. coli R3 (ATCC 11775). The MIC turned out to be 0.84 µM (≈ 0.311 µg/mL) with E. coli R2 (ATCC 39544) and 0.33 µM (≈ 0.122 µg/mL) against E. coli K12 (ATCC 25404). For the same molecule, the MBC stood at 0.94 µM (≈ 0.348 µg/mL) against E. cloacae (ATCC 49141); 0.94 µM (≈ 0.348 µg/mL) against S. aureus (ATCC 23235); 1.7 µM (≈ 0.63 µg/mL) against E. coli R4 (ATCC 39543); 0.9 µM (≈ 0.333 µg/mL) in series [2]; 0.94 µM (≈ 0.348 µg/mL) in [3]; 1.64 µM (≈ 0.608 µg/mL) against E. coli R3 (ATCC 11775). For the same molecule, the MBC in the series on E. coli R2 (ATCC 39544) came out at 1.51 µM (≈ 0.559 µg/mL); in the series on E. coli K12 (ATCC 25404), 0.89 µM (≈ 0.33 µg/mL).

For `CCCCN(C(C)=O)C(C(=O)NCc1ccc(OC)cc1)c1ccc(O)c(O)c1` (stereo not drawn) [Compound 5q, 2-(N-butylacetamido)-2-(3,4-dihydroxyphenyl)-N-(4-methoxybenzyl)acetamide], the inhibition at 100 µM in series [1] is less than 10%. The MIC turned out to be 0.84 µM (≈ 0.336 µg/mL) in the series with E. cloacae (ATCC 49141); 0.81 µM (≈ 0.324 µg/mL) with S. aureus (ATCC 23235); 1.49 µM (≈ 0.597 µg/mL) against E. coli R4 (ATCC 39543); 0.81 µM (≈ 0.324 µg/mL) in series [2]; 0.83 µM (≈ 0.332 µg/mL) in [3]; 1.13 µM (≈ 0.453 µg/mL) in the series with E. coli R3 (ATCC 11775). Moreover, the MIC against E. coli R2 (ATCC 39544) is 0.82 µM (≈ 0.328 µg/mL); against E. coli K12 (ATCC 25404), 0.43 µM (≈ 0.172 µg/mL). The MBC in the series with E. cloacae (ATCC 49141) came out at 0.85 µM (≈ 0.34 µg/mL); in the series with S. aureus (ATCC 23235), 0.91 µM (≈ 0.364 µg/mL); in the series on E. coli R4 (ATCC 39543) it was 1.58 µM (≈ 0.633 µg/mL); in series [2] it was 0.85 µM (≈ 0.34 µg/mL); in series [3], 0.87 µM (≈ 0.348 µg/mL); against E. coli R3 (ATCC 11775) it was 1.52 µM (≈ 0.609 µg/mL). The MBC with E. coli R2 (ATCC 39544) was 1.44 µM (≈ 0.577 µg/mL); in the series on E. coli K12 (ATCC 25404) it was 0.79 µM (≈ 0.316 µg/mL). Also, the viability (in general, a per cent measure of how many cells are alive, often set against a control) at 24 h, 1 µM in “MTT cytotoxicity assay” was found to be 86.9%.

`CCCCN(C(C)=O)C(C(=O)NCc1ccc(F)cc1)c1ccc(O)c(O)c1` (stereo not drawn) [Compound 5r, 2-(N-butylacetamido)-2-(3,4-dihydroxyphenyl)-N-(4-fluorobenzyl)acetamide] registered an inhibition at 100 µM in [1] of less than 10%. Besides, the MIC with E. cloacae (ATCC 49141) was determined as 1.67 µM (≈ 0.649 µg/mL); with S. aureus (ATCC 23235), 1.51 µM (≈ 0.587 µg/mL); against E. coli R4 (ATCC 39543), 3.13 µM (≈ 1.22 µg/mL); in series [2] it was 1.26 µM (≈ 0.489 µg/mL); in series [3], 1.64 µM (≈ 0.637 µg/mL); with E. coli R3 (ATCC 11775), 2.56 µM (≈ 0.994 µg/mL). Moreover, the MIC with E. coli R2 (ATCC 39544) was found to be 1.5 µM (≈ 0.583 µg/mL); against E. coli K12 (ATCC 25404) it was 0.74 µM (≈ 0.287 µg/mL). The MBC with E. cloacae (ATCC 49141) is 1.5 µM (≈ 0.583 µg/mL); in the series with S. aureus (ATCC 23235), 1.54 µM (≈ 0.598 µg/mL); in the series with E. coli R4 (ATCC 39543), 3.5 µM (≈ 1.36 µg/mL); in series [2], 1.31 µM (≈ 0.509 µg/mL); in series [3], 1.49 µM (≈ 0.579 µg/mL); in the series on E. coli R3 (ATCC 11775) it was 3.14 µM (≈ 1.22 µg/mL). Besides, the MBC in the series on E. coli R2 (ATCC 39544) was found to be 1.51 µM (≈ 0.587 µg/mL); against E. coli K12 (ATCC 25404) it was 0.94 µM (≈ 0.365 µg/mL).
